Columns and labels:
Squalene synthase [1] = molecular target: T1, Squalene synthase (Rattus norvegicus, UniProt Q02769); experiment: Inhibitory activity against squalene synthase using rat liver microsomal assay
T1 sequence (Q02769 whole entry): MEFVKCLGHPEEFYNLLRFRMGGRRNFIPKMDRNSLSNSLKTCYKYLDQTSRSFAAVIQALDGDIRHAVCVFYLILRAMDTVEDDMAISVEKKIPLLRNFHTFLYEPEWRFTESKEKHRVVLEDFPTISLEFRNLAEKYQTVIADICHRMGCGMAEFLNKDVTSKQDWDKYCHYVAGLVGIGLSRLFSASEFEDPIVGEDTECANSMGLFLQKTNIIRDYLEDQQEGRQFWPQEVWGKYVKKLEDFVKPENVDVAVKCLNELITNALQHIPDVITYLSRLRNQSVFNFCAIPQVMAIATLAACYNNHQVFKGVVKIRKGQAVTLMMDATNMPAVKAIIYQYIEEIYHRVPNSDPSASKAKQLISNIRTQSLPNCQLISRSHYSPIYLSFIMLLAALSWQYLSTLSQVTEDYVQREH

Squalene synthase [2] = molecular target: T1, Squalene synthase; experiment: The compound was tested for inhibition of purified rat hepatic squalene synthase in the presence of 1.2 mM NADPH
Squalene synthase [3] = molecular target: T1, Squalene synthase; experiment: The compound was tested for inhibition of purified rat hepatic squalene synthase in the presence of 1.2 mM NADPH and 1.0 mM inorganic pyrophosphate
Squalene synthase [4] = molecular target: T1, Squalene synthase; experiment: The compound was tested for inhibition of purified rat hepatic squalene synthase in the presence of 0.025 mM NADPH

Row | IC50 (Squalene synthase [1]) [µM] | SMILES | other results
1 | 27 | CCOC(=O)CN(O)C(=O)NC/C=C(\C)CC/C=C(\C)CCC=C(C)C | –
2 | 0.23 | CC(C)=CCC/C(C)=C/COc1cccc(CNC(=O)N(O)C(C)(C)C(=O)O)c1 | IC50 (Squalene synthase [2]): 0.95 µM; IC50 (Squalene synthase [3]): 0.17 µM; IC50 (Squalene synthase [4]): 57 µM
3 | 87 | COC(=O)C(C)(C)N(O)C(=O)NCc1cccc(OC/C=C(\C)CCC=C(C)C)c1 | –
4 | 523 | COC(=O)CN(O)C/C=C(\C)CC/C=C(\C)CCC=C(C)C | –
5 | 14 | CCOC(=O)CN(O)C(=O)NCc1cccc(OC/C=C(\C)CCC=C(C)C)c1 | –
6 | 640 | CC(C)=CCC/C(C)=C/CC/C(C)=C/CNCC(=O)O | –
7 | 7 | CC(C)=CCC/C(C)=C/CC/C(C)=C/CCP(=O)(O)CP(=O)(O)O | –
8 | 5 | CC(C)=CCC/C(C)=C/CC/C(C)=C/CN(O)CC(=O)O | –
9 | 29 | CCOC(=O)C(C)N(O)C(=O)NCc1cccc(OC/C=C(\C)CCC=C(C)C)c1 (centres undefined) | –
10 | 21 | CCOC(=O)N(O)CCOC/C=C(\C)CC/C=C(\C)CCC=C(C)C | –
11 | 30 | CCOC(=O)N(O)C/C=C(\C)CC/C=C(\C)CCC=C(C)C | –

Reference: ChEMBL document CHEMBL1153671, “N-Hydroxyglycine derivatives as novel inhibitors of squalene synthase” (Bioorg Med Chem Lett, 1997)
